Experimental data as given in the supplement of paper PMC10883282.

How the values were obtained:
Experiment in all cases: relative viability vs DMSO control (72 h) (fraction); higher = more viable cells
G401 = tested on: G401
Summary of the method: (§1)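 Sarcoma cell lines were seeded in 384-well plates at densities set to reach 80–90% confluence. After 24 h, 2.5 µl of serially diluted compound was added (source plates 10 mM to 0.0002 mM), and plates were held 72 h at 37 °C, 5% CO2, with 0.1% DMSO vehicle and a 5 µM positive control. Relative viability came from ATPLite readings as percent growth, averaged over up to triplicate wells. Data were rescaled so full viability equals 1 and none equals 0.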

A204 = tested on: A204
Summary of the method: as §1

SW1353 = tested on: SW1353
Summary of the method: as §1

SW872 = tested on: SW872
Summary of the method: as §1

SYO-1 = tested on: SYO-1
Summary of the method: as §1

SW684 = tested on: SW684
Summary of the method: as §1

CCC(=O)N1CC[C@H](Nc2ncnc3c2CN(c2cnc(OC)c(C(F)(F)F)c2)CC3)C1 [Leniolisib]
relative viability
Settings | A204 | G401 | SW684 | SW872 | SW1353 | SYO-1
0.00017 µM | 1.04 | 1.02 | 1.091 | 1.1 | 1.02 | 1.03
0.00051 µM | 1.06 | 1 | 1.14 | 1.09 | 1.04 | 0.999
0.00152 µM | 1 | 1.01 | 1.14 | 1.07 | 0.985 | 0.984
0.00457 µM | 1.04 | 1.01 | 1.14 | 1.06 | 0.999 | 0.965
0.01372 µM | 1.03 | 1.02 | 1.15 | 1.06 | 0.97 | 0.947
0.04115 µM | 1.02 | 0.973 | 1.03 | 1.03 | 0.9439 | 0.949
0.1235 µM | 1.01 | 0.947 | 0.912 | 1.03 | 0.953 | 0.933
0.3704 µM | 0.986 | 0.936 | 0.793 | 1.03 | 0.931 | 0.886
1.111 µM | 0.897 | 0.868 | 0.742 | 0.951 | 0.885 | 0.875
3.333 µM | 0.768 | 0.835 | 0.674 | 0.907 | 0.826 | 0.816
10 µM | 0.579 | 0.689 | 0.548 | 0.688 | 0.692 | 0.724
